Results on three compounds are retold here after paper PMC6174881 (Journal of medicinal chemistry, 2018).

By EC50 is commonly meant the concentration that produces a half-maximal response.

Where two headings read alike, the source gives them in different places. Square brackets hold non-standard residues; d marks the D form. Peptide text beside a SMILES is read from it. hPhe = N[C@@H](CCc1ccccc1)C(=O)O

Test [1] addresses T1, mMC1R (Mus musculus, UniProt Q01727). Kind of test: cell-based.
In test [2] the target is T2, mMC4R (Mus musculus, UniProt P56450). To be noted: depending on the cAMP assay utilized; cited from earlier work. For orientation: cAMP levels reflect the balance of adenylyl cyclase and phosphodiesterase activity.
The target of test [3] is T1, mMC1R. To be noted: maximal stimulation relative to NDP-MSH; sigmoidal dose-response.
The test system of another test is MC1R. To be noted: read-out: MC1R agonist EC50; cited from earlier work.
The target in test [4] is T3, mMC3R (Mus musculus, UniProt P33033). To be noted: β-galactosidase reporter gene bioassay; up to 10 μM; cited from earlier work. (In general: In a reporter assay the amount or activity of a reporter protein is the signal.)
In test [5] the target is T2, mMC4R. To be noted: β-galactosidase reporter gene bioassay; cited from earlier work.
The target in the next test is mMC5R (Mus musculus, UniProt P41149). Kind of test: AlphaScreen cAMP assay, agonist/inverse agonist activity at mMC5R. To be noted: up to 100 μM. For orientation: Alpha assays give light when donor and acceptor beads are brought close together.
Test [6] addresses T2, mMC4R.
The target in test [7] is T2, mMC4R. The source holds these as a separate data set.
Test [8] deals with T3, mMC3R.

T2 sequence (P56450 whole entry): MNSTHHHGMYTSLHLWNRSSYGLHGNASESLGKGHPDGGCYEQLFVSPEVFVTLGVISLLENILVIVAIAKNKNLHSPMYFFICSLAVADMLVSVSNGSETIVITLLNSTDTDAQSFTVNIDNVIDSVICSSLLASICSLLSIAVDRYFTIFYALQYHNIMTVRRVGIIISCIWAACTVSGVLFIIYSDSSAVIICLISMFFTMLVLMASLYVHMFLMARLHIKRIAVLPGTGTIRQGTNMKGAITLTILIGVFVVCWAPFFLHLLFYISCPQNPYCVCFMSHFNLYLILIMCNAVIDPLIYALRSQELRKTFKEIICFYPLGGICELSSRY
T3 sequence (P33033 whole entry): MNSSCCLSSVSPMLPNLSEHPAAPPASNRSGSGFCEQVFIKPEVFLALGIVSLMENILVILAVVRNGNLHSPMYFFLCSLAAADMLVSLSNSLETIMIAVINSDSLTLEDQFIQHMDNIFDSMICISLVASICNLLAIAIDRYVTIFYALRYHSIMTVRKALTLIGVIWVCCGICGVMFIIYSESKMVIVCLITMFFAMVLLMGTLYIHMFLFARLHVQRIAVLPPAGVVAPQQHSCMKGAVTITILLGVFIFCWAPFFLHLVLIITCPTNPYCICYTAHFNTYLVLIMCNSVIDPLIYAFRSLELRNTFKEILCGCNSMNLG
T1 sequence (Q01727 whole entry): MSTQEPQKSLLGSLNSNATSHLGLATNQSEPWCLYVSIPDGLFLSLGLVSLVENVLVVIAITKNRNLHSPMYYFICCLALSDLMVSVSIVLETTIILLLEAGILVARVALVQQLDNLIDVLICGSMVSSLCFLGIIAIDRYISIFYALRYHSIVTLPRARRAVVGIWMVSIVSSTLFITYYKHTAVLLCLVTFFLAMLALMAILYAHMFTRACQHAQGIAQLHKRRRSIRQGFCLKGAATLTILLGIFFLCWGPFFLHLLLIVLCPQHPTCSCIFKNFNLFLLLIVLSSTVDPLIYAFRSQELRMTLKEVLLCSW
Chain of mMC5R (P41149 whole entry): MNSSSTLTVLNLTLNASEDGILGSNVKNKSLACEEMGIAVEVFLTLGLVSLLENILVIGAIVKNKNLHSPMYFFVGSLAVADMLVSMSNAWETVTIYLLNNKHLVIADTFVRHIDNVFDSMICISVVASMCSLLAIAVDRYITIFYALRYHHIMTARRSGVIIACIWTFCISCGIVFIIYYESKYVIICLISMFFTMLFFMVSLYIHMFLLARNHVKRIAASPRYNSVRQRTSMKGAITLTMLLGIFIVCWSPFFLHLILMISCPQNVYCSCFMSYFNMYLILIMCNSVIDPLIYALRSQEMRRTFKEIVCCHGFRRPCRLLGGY

The compound `C[C@@H]1NC(=O)[C@H](CC(N)=O)NC(=O)[C@H](Cc2ccccc2)NC(=O)[C@H](Cc2ccccc2)NC(=O)[C@H](CCCNC(=N)N)NC(=O)[C@@H]2CCCN2C(=O)[C@H]2CCCN2C(=O)[C@H](Cc2ccccc2)NC1=O` [Compound 1, c[Pro-Arg-Phe-Phe-Asn-Ala-Phe-DPro]] gave an EC50 on mMC1R [1] of 2800 ± 600 nM. On mMC4R [2], the “mMC4R pA2” value is 7.7–8.1. Moreover, the “mMC1R partial agonist activity (X%), receptor stimulated to given percent” value on mMC1R [3] amounted to 80%.
On to “Tyr-c[Cys-Arg-Phe-Phe-Asn-Ala-Phe-Cys]-Tyr [hAGRP(109–118), reference compound]”, for which the EC50 with MC1R was 3000 nM. Also, the “mMC3R activity in words” value with mMC3R [4] is on record as “No activity (Agonist or Antagonist)”. Further, the “Antagonist mMC4R pA2” value in the test with mMC4R [5] is recorded as 6.8±0.4.
For `C[C@@H]1NC(=O)[C@H](CCCNC(=N)N)NC(=O)[C@H](CCc2ccccc2)NC(=O)[C@H](Cc2ccccc2)NC(=O)[C@H](CCCNC(=N)N)NC(=O)[C@@H]2CCCN2C(=O)[C@H]2CCCN2C(=O)[C@H](Cc2ccccc2)NC1=O` [Compound 21, c[Pro-Arg-Phe-hPhe-Arg-Ala-Phe-DPro]] (cyclo(RF[hPhe]RAF[dP]P)), the “mMC5R activity in words” value at mMC5R is “did not result in mMC5R stimulation”. In addition, the “Antagonist mMC4R pA2” value on mMC4R [6] is reported as 8.9. At mMC4R [7], the “mMC4R potency compared to AGRP in words” value is “equipotent to AGRP”. In addition, the “fold increase in potency at the mMC4R compared to 1” value at mMC4R [7] (calculated using Ki values from Schild analysis) is recorded as 6 fold. Moreover, the “fold decrease in mMC4R selectivity compared to 1” value on mMC4R [7] (calculated using antagonist Ki values) is 7 fold. Besides, the “fold less potent than AGRP at the mMC3R” value on mMC3R [8] is 5 fold.
